Results from PubChem BioAssay (NCI).
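Here, GI50 denotes the concentration required for 50% inhibition of growth. TGI marks complete inhibition of growth.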

Key:
Experiment in all cases: growth of human tumour cells (NCI), 384-well format
MDA-MB-435 melanoma = system: MDA-MB-435 melanoma
NCI-H460 NSCLC = system: NCI-H460 NSCLC
PC-3 prostate = system: PC-3 prostate
SF-268 CNS = system: SF-268 CNS
HT29 colon = system: HT29 colon
UACC-257 melanoma = system: UACC-257 melanoma
HOP-92 NSCLC = system: HOP-92 NSCLC
TK-10 renal = system: TK-10 renal
HCT-15 colon = system: HCT-15 colon
NCI-H23 lung = system: NCI-H23 lung
OVCAR-3 ovarian = system: OVCAR-3 ovarian
RPMI-8226 leukemia = system: RPMI-8226 leukemia
SW-620 colon = system: SW-620 colon
SK-OV-3 ovarian = system: SK-OV-3 ovarian
MALME-3M melanoma = system: MALME-3M melanoma
NCI-H322M lung = system: NCI-H322M lung
RXF 393 renal = system: RXF 393 renal
SR leukemia = system: SR leukemia
SF-295 CNS = system: SF-295 CNS
LOX IMVI melanoma = system: LOX IMVI melanoma
786-0 renal = system: 786-0 renal
HS 578T breast = system: HS 578T breast
SK-MEL-5 melanoma = system: SK-MEL-5 melanoma
IGROV1 ovarian = system: IGROV1 ovarian
HCT-116 colon = system: HCT-116 colon
T-47D breast = system: T-47D breast
U251 glioblastoma = system: U251 glioblastoma
A498 renal = system: A498 renal
K-562 leukemia = system: K-562 leukemia
UO-31 renal = system: UO-31 renal
HL-60(TB) leukemia = system: HL-60(TB) leukemia
MDA-MB-231 breast = system: MDA-MB-231 breast
A549 NSCLC = system: A549 NSCLC
HCC-2998 colon = system: HCC-2998 colon
M14 melanoma = system: M14 melanoma
MDA-MB-468 breast = system: MDA-MB-468 breast
EKVX NSCLC = system: EKVX NSCLC
SK-MEL-28 melanoma = system: SK-MEL-28 melanoma
SNB-19 CNS = system: SNB-19 CNS
SK-MEL-2 melanoma = system: SK-MEL-2 melanoma
BT-549 breast = system: BT-549 breast
OVCAR-4 ovarian = system: OVCAR-4 ovarian
MCF7 breast = system: MCF7 breast
CAKI-1 renal = system: CAKI-1 renal
HOP-62 NSCLC = system: HOP-62 NSCLC
SN12C renal = system: SN12C renal
DU-145 prostate = system: DU-145 prostate

In the case of `CC(C)(O)C1CCC(Nc2ccc3ncc(-c4cccc(C(F)(F)F)c4)n3n2)CC1` (centres undefined), the GI50 (MDA-MB-435 melanoma) is reported as 1.53 µM, the TGI (MDA-MB-435 melanoma) is reported as 4.17 µM and the GI50 (NCI-H460 NSCLC) is reported as 1.13 µM. For the same compound, the TGI (NCI-H460 NSCLC) was 2.53 µM, the GI50 (PC-3 prostate) was 1.37 µM and the TGI (PC-3 prostate) was 3.32 µM. It also gave a GI50 (SF-268 CNS) of 1.51 µM, a TGI (SF-268 CNS) of 4.44 µM and a GI50 (HT29 colon) of 1.31 µM. The TGI (HT29 colon) was 3.05 µM, the GI50 (UACC-257 melanoma) was 1.55 µM and the TGI (UACC-257 melanoma) was 3.08 µM. It also gave a GI50 (HOP-92 NSCLC) of 0.67 µM, a TGI (HOP-92 NSCLC) of 3.13 µM and a GI50 (TK-10 renal) of 1.39 µM. It also gave a TGI (TK-10 renal) of 6.84 µM, a GI50 (HCT-15 colon) of 1.12 µM and a TGI (HCT-15 colon) of 2.93 µM. For the same compound, the GI50 (NCI-H23 lung) was 1.46 µM, the TGI (NCI-H23 lung) was 3.3 µM and the GI50 (OVCAR-3 ovarian) was 1.95 µM. It also gave a TGI (OVCAR-3 ovarian) of 6.19 µM, a GI50 (RPMI-8226 leukemia) of 0.19 µM and a TGI (RPMI-8226 leukemia) of 0.365 µM. For the same compound, the GI50 (SW-620 colon) was 1.81 µM, the TGI (SW-620 colon) was 4.15 µM and the GI50 (SK-OV-3 ovarian) was 1.12 µM. The TGI (SK-OV-3 ovarian) was 2.89 µM, the GI50 (MALME-3M melanoma) was 0.833 µM and the TGI (MALME-3M melanoma) was 2.95 µM. For the same compound, the GI50 (NCI-H322M lung) was 1.73 µM, the TGI (NCI-H322M lung) was 3.93 µM and the GI50 (RXF 393 renal) was 0.202 µM. For the same compound, the TGI (RXF 393 renal) was 0.616 µM, the GI50 (SR leukemia) was 0.588 µM and the TGI (SR leukemia) was 1.69 µM. It also gave a GI50 (SF-295 CNS) of 1.05 µM, a TGI (SF-295 CNS) of 2.4 µM and a GI50 (LOX IMVI melanoma) of 1.4 µM. The TGI (LOX IMVI melanoma) was 2.78 µM, the GI50 ([…]-0 renal) was 0.554 µM and the TGI (786-0 renal) was 1.9 µM. The GI50 (HS 578T breast) was 0.364 µM, the TGI (HS 578T breast) was 1.66 µM and the GI50 (SK-MEL-5 melanoma) was 0.948 µM. For the same compound, the TGI (SK-MEL-5 melanoma) was 2.32 µM, the GI50 (IGROV1 ovarian) was 1.91 µM and the TGI (IGROV1 ovarian) was 5.23 µM. The GI50 (HCT-116 colon) was 1.7 µM, the TGI (HCT-116 colon) was 3.37 µM and the GI50 (T-47D breast) was 0.54 µM. It also gave a TGI (T-47D breast) of 2.12 µM, a GI50 (U251 glioblastoma) of 1.32 µM and a TGI (U251 glioblastoma) of 2.83 µM. It also gave a GI50 (A498 renal) of 1.16 µM, a TGI (A498 renal) of 2.59 µM and a GI50 (K-562 leukemia) of 0.891 µM. It also gave a TGI (K-562 leukemia) of 2.21 µM, a GI50 (UO-31 renal) of 2.12 µM and a TGI (UO-31 renal) of 12.4 µM. The GI50 (HL-60(TB) leukemia) was 0.641 µM, the TGI (HL-60(TB) leukemia) was 1.88 µM and the GI50 (MDA-MB-231 breast) was 1.13 µM. For the same compound, the TGI (MDA-MB-231 breast) was 3.42 µM, the GI50 (A549 NSCLC) was 2.1 µM and the TGI (A549 NSCLC) was 7.64 µM. For the same compound, the GI50 (HCC-2998 colon) was 1.22 µM, the TGI (HCC-2998 colon) was 2.75 µM and the GI50 (M14 melanoma) was 0.798 µM. The TGI (M14 melanoma) was 2.22 µM, the GI50 (MDA-MB-468 breast) was 1.09 µM and the TGI (MDA-MB-468 breast) was 2.64 µM. The GI50 (EKVX NSCLC) was 1.67 µM, the TGI (EKVX NSCLC) was 5.66 µM and the GI50 (SK-MEL-28 melanoma) was 1.37 µM. For the same compound, the TGI (SK-MEL-28 melanoma) was 2.69 µM, the GI50 (SNB-19 CNS) was 1.9 µM and the TGI (SNB-19 CNS) was 5.5 µM. It also gave a GI50 (SK-MEL-2 melanoma) of 1.32 µM, a TGI (SK-MEL-2 melanoma) of 2.62 µM and a GI50 (BT-549 breast) of 1.45 µM. It also gave a TGI (BT-549 breast) of 3.88 µM, a GI50 (OVCAR-4 ovarian) of 0.994 µM and a TGI (OVCAR-4 ovarian) of 4.82 µM. The GI50 (MCF7 breast) was 1.49 µM, the TGI (MCF7 breast) was 3.12 µM and the GI50 (CAKI-1 renal) was 1.49 µM. The TGI (CAKI-1 renal) was 3.39 µM, the GI50 (HOP-62 NSCLC) was 1.51 µM and the TGI (HOP-62 NSCLC) was 3.6 µM. The GI50 (SN12C renal) was 1.48 µM, the TGI (SN12C renal) was 5 µM and the GI50 (DU-145 prostate) was 2.83 µM. For the same compound, the TGI (DU-145 prostate) was 12.3 µM.
